According to US12084458B2, “Substituted pyridines, pyridazines, and pyrimidines as TYK2 inhibitors” (Sudo Biosciences Limited, priority 2021, dated 2024):

Legend:
Assay type in all cases: cell-based
[1] = test system: HEK-Blue IL-2 reporter cells (IL-2-stimulated STAT5 SEAP reporter); assay: HEK-Blue IL-2 SEAP reporter assay for determining selectivity; details: 4 ng/mL human recombinant IL-2
Method: (§1) Example B-3: HEK-Blue™ IL-2 and IFNγ Reporter Assays for Determining Selectivity
(§2) HEK-Blue™ IL-2 and IFNγ reporter cells with a stably-integrated cytokine receptor and STAT5 or STAT1 express STAT-inducible secreted embryonic alkaline phosphatase (SEAP) reporter gene upon cytokine stimulation. These cells were plated in DMEM (Gibco) containing 10% heat-inactivated FBS (Gibco) and 100 U/mL PenStrep (Gibco) at 37° C. under 5% CO2 conditions for 20-22 hours. The cells were then pretreated with serially diluted test compounds for 60 min prior to stimulation with either 4 ng/mL human recombinant IL-2 (Miltenyl Biotech) or 50 ng/mL human recombinant IFNγ (InvivoGen) for 24 hours. SEAP induction was measured using the QUANTI-Blue™ Solution (InvivoGen) according to the manufacturer's instructions.

[2] = test system: HEK-Blue IFNγ reporter cells (IFNγ-stimulated STAT1 SEAP reporter); assay: HEK-Blue IFNγ SEAP reporter assay for determining selectivity; details: Homo sapiens, HEK-Blue, 50 ng/mL human recombinant IFNγ, read-out: IFN-γ (SEAP selectivity, IC50)
Method: as §1, §2

[3] = test system: HEK-Blue IL-23 cells (IL-23-stimulated STAT3 SEAP reporter; TYK2 JH2); assay: HEK-Blue IL-23 SEAP reporter assay for profiling TYK2 pseudokinase (JH2) inhibition; details: 10 ng/mL human recombinant IL-23, SEAP reporter, read-out: IL23 (TYK2 inhibitory activity, IC50)
Method: (§3) Example B-1: HEK-Blue™ IL-23 and IFNα/β Reporter Assays for Profiling TYK2 Pseudokinase (JH2) Inhibition
(§4) HEK-Blue™ IL-23 and IFNα/β cells with a stably-integrated cytokine receptor and STAT3 or STAT1 express STAT-inducible secreted embryonic alkaline phosphatase (SEAP) reporter gene upon cytokine stimulation. These cells are plated in DMEM (Gibco) containing 10% heat-inactivated FBS (Gibco) and 100 U/mL PenStrep (Gibco) at 37° C. under 5% CO2 conditions for 20-22 hours. The cells are then pretreated with serially diluted test compounds for 60 min prior to stimulation with either 10 ng/mL human recombinant IL-23 (Miltenyl Biotech) or 1 ng/mL human recombinant IFNα (InvivoGen) for 22-24 hours for IL-23 or 16-18 h for IFNα. SEAP induction is measured using the QUANTI Blue™ Solution (InvivoGen) according to the manufacturer's instructions.

[4] = test system: HEK-Blue IFNα/β cells (IFNα-stimulated STAT1 SEAP reporter; TYK2 JH2); assay: HEK-Blue IFNα/β SEAP reporter assay for profiling TYK2 pseudokinase (JH2) inhibition; set-up: IFNα (TYK2 inhibitory activity, IC50): scale not given here; details: 1 ng/mL human recombinant IFNα; for IC50: Homo sapiens, HEK-Blue, read-out: IFNα (TYK2 inhibitory activity, IC50)
Method: as §3, §4

## [2H]C([2H])([2H])NC(=O)c1nnc(NC(=O)C2CC2)cc1Nc1cccc2c1N(C)[C@@H](C)c1nc(C)nn1-2 (single isomer, unassigned) [Compound 22]
[1]
  IC50: > 1 µM
[2]
  IC50: 0.3 to 1 µM
[3]
  IC50: < 0.03 µM
[4]
  IC50: < 0.03 µM

## [2H]C([2H])([2H])NC(=O)c1cnc(NC(=O)C2CC2)cc1Nc1cccc2c1N(C)[C@@H](C)c1nc(C)nn1-2 (single isomer, unassigned) [Compound 25]
[1]
  IC50: > 1 µM
[2]
  IC50: > 1 µM
[3]
  IC50: < 0.03 µM
[4]
  IC50: < 0.03 µM

## [2H]C([2H])([2H])NC(=O)c1cnc(NC(=O)NC)cc1Nc1cccc2c1N(C)[C@@H](C)c1nn(C)nc1-2 (single isomer, unassigned) [Compound 55]
[1]
  IC50: > 1 µM
[2]
  IC50: > 1 µM
[3]
  IC50: < 0.03 µM
[4]
  IC50: < 0.03 µM

## [2H]C([2H])([2H])NC(=O)c1cnc(NC(=O)NC)cc1Nc1cccc2c1N(C)[C@H](C)c1nn(C)nc1-2 (single isomer, unassigned) [Compound 56]
[1]
  IC50: > 1 µM
[2]
  IC50: > 1 µM
[3]
  IC50: 0.03 to 0.3 µM
[4]
  IC50: > 1 µM

## [2H]C([2H])([2H])NC(=O)c1cnc(NC(=O)C2CC2)cc1Nc1cccc2c1N(C)[C@@H](C)c1nn(C)nc1-2 (single isomer, unassigned) [Compound 57]
[1]
  IC50: > 1 µM
[2]
  IC50: > 1 µM
[3]
  IC50: < 0.03 µM
[4]
  IC50: < 0.03 µM

## [2H]C([2H])([2H])NC(=O)c1nnc(NC(=O)C2CC2)cc1Nc1cccc2c1N(C)[C@@H](C)c1nn(C)nc1-2 (single isomer, unassigned) [Compound 60]
[1]
  IC50: > 1 µM
[2]
  IC50: > 1 µM
[3]
  IC50: < 0.03 µM
[4]
  IC50: < 0.03 µM

## [2H]C([2H])([2H])NC(=O)c1nnc(NC(=O)NC)cc1Nc1cccc2c1N(C)[C@@H](C)c1nn(C)nc1-2 (single isomer, unassigned) [Compound 62]
[1]
  IC50: > 1 µM
[2]
  IC50: > 1 µM
[3]
  IC50: < 0.03 µM
[4]
  IC50: < 0.03 µM

## [2H]C([2H])([2H])NC(=O)c1nnc(NC(=O)C2CC2)cc1Nc1nccc2c1N(C)[C@@H](C)c1nn(C)nc1-2 (single isomer, unassigned) [Compound 94]
[1]
  IC50: > 1 µM
[2]
  IC50: 0.3 to 1 µM
[3]
  IC50: < 0.03 µM
[4]
  IC50: < 0.03 µM

## [2H]C([2H])([2H])NC(=O)c1nnc(NC(=O)C2CC2)cc1Nc1nccc2c1N(C)[C@H](C)c1nn(C)nc1-2 (single isomer, unassigned) [Compound 95]
[1]
  IC50: > 1 µM
[2]
  IC50: > 1 µM
[3]
  IC50: < 0.03 µM
[4]
  IC50: 0.03 to 0.3 µM

## [2H]C([2H])([2H])NC(=O)c1nnc(NC(=O)NC)cc1Nc1nccc2c1N(C)[C@@H](C)c1nn(C)nc1-2 (single isomer, unassigned) [Compound 100]
[1]
  IC50: > 1 µM
[2]
  IC50: > 1 µM
[3]
  IC50: < 0.03 µM
[4]
  IC50: < 0.03 µM

## [2H]C([2H])([2H])NC(=O)c1cnc(Nc2ccc(F)cn2)cc1Nc1cccc2c1N(C)Cc1nc(C)nn1-2 [Compound 27, 4-((2,5-dimethyl-4,5-dihydro-[1,2,4]triazolo[1,5-a]quinoxalin-6-yl)amino)-6-((5-fluoropyridin-2-yl)amino)-N-(methyl-d3)nicotinamide]
[1]
  IC50: > 1 µM
[2]
  IC50: 0.3 to 1 µM
[3]
  IC50: < 0.03 µM

## [2H]C([2H])([2H])NC(=O)c1cnc(NC(=O)N(C)C)cc1Nc1cccc2c1N(C)Cc1nn(C)nc1-2 [Compound 51, 4-((2,5-dimethyl-4,5-dihydro-2H-[1,2,3]triazolo[4,5-c]quinolin-6-yl)amino)-6-(3,3-dimethylureido)-N-(methyl-d3)nicotinamide]
[1]
  IC50: > 1 µM
[3]
  IC50: < 0.03 µM

## [2H]C([2H])([2H])NC(=O)Nc1cc(Nc2cccc3c2N(C)Cc2nn(C)nc2-3)c(C(=O)NC([2H])([2H])[2H])cn1 [Compound 67, 4-((2,5-dimethyl-4,5-dihydro-2H-[1,2,3]triazolo[4,5-c]quinolin-6-yl)amino)-N-(methyl-d3)-6-(3-(methyl-d3)ureido)nicotinamide]
[1]
  IC50: > 1 µM
[3]
  IC50: < 0.03 µM
[4]
  IC50: < 0.03 µM

## [2H]C([2H])([2H])NC(=O)c1cnc(N(C)C(=O)C2CC2)cc1Nc1cccc2c1N(C)Cc1nc(C)nn1-2 [Compound 82, 4-((2,5-dimethyl-4,5-dihydro-[1,2,4]triazolo[1,5-a]quinoxalin-6-yl)amino)-N-(methyl-d3)-6-(N-methylcyclopropanecarboxamido)nicotinamide]
[3]
  IC50: > 1 µM
[4]
  IC50: > 1 µM

## [2H]C([2H])([2H])NC(=O)c1cnc(NC(=O)C2CC2)cc1Nc1ccnc2c1N(C)Cc1nc(C)nn1-2 [Compound 86, 6-(cyclopropanecarboxamido)-4-((2,5-dimethyl-4,5-dihydropyrido[3,2-e][1,2,4]triazolo[1,5-a]pyrazin-6-yl)amino)-N-(methyl-d3)nicotinamide]
[3]
  IC50: 0.03 to 0.3 µM
[4]
  IC50: 0.3 to 1 µM

## [2H]C([2H])([2H])NC(=O)c1nnc(NC(=O)C2CC2)cc1Nc1ccnc2c1N(C)Cc1nc(C)nn1-2 [Compound 87, 6-(cyclopropanecarboxamido)-4-((2,5-dimethyl-4,5-dihydropyrido[3,2-e][1,2,4]triazolo[1,5-a]pyrazin-6-yl)amino)-N-(methyl-d3)pyridazine-3-carboxamide]
[3]
  IC50: 0.03 to 0.3 µM
[4]
  IC50: 0.3 to 1 µM

## [2H]C([2H])([2H])NC(=O)c1nnc(NC(=O)C2CC2)cc1Nc1c(F)ccc2c1N(C)Cc1nc(C)nn1-2 [Compound 98, 6-(cyclopropanecarboxamido)-4-((7-fluoro-2,5-dimethyl-4,5-dihydro-[1,2,4]triazolo[1,5-a]quinoxalin-6-yl)amino)-N-(methyl-d3)pyridazine-3-carboxamide]
[3]
  IC50: 0.03 to 0.3 µM
[4]
  IFNα (TYK2 inhibitory activity, IC50): C/D

## [2H]C([2H])([2H])NC(=O)c1nnc(NC(=O)NC)cc1Nc1cc(F)cc2c1N(C)Cc1nc(C)nn1-2 [Compound 103, 4-((8-fluoro-2,5-dimethyl-4,5-dihydro-[1,2,4]triazolo[1,5-a]quinoxalin-6-yl)amino)-N-(methyl-d3)-6-(3-methylureido)pyridazine-3-carboxamide]
[3]
  IC50: 0.03 to 0.3 µM
[4]
  IC50: 0.03 to 0.3 µM

## [2H]C([2H])([2H])NC(=O)c1nnc(NC(=O)C2CC2)cc1Nc1nccc2c1N(C)[C@@H](C)c1nc(C)nn1-2 [Compound 112, (S)-6-(cyclopropanecarboxamido)-N-(methyl-d3)-4-((2,4,5-trimethyl-4,5-dihydropyrido[3,4-e][1,2,4]triazolo[1,5-a]pyrazin-6-yl)amino)pyridazine-3-carboxamide]
[3]
  IC50: < 0.03 µM
[4]
  IC50: 0.03 to 0.3 µM

## [2H]C([2H])([2H])NC(=O)c1nnc(NC(=O)C2CC2)cc1Nc1nccc2c1N(C)[C@@H](C([2H])([2H])[2H])c1nn(C)nc1-2 [Compound 113, (S)-6-(cyclopropanecarboxamido)-4-((2,5-dimethyl-4-(methyl-d3)-4,5-dihydro-2H-[1,2,3]triazolo[4,5-c][1,7]naphthyridin-6-yl)amino)-N-(methyl-d3)pyridazine-3-carboxamide]
[3]
  IC50: 0.03 to 0.3 µM
[4]
  IC50: 0.03 to 0.3 µM

## [2H]C([2H])([2H])NC(=O)c1nnc(NC(=O)C2CC2)cc1Nc1nccc2c1N(C)[C@H](C([2H])([2H])[2H])c1nn(C)nc1-2 [Compound 114, (R)-6-(cyclopropanecarboxamido)-4-((2,5-dimethyl-4-(methyl-d3)-4,5-dihydro-2H-[1,2,3]triazolo[4,5-c][1,7]naphthyridin-6-yl)amino)-N-(methyl-d3)pyridazine-3-carboxamide]
[3]
  IC50: < 0.03 µM
[4]
  IC50: < 0.03 µM

## [2H]C([2H])([2H])NC(=O)c1nnc(NC(=O)[C@H]2C[C@H]2F)cc1Nc1nccc2c1N(C)Cc1nn(C)nc1-2 [Compound 115, 4-((2,5-dimethyl-4,5-dihydro-2H-[1,2,3]triazolo[4,5-c][1,7]naphthyridin-6-yl)amino)-6-((1R,2R)-2-fluorocyclopropane-1-carboxamido)-N-(methyl-d3)pyridazine-3-carboxamide]
[3]
  IC50: < 0.03 µM
[4]
  IC50: < 0.03 µM

## [2H]C([2H])([2H])NC(=O)c1nnc(NC(=O)[C@@H]2C[C@@H]2F)cc1Nc1nccc2c1N(C)Cc1nn(C)nc1-2 [Compound 116, 4-((2,5-dimethyl-4,5-dihydro-2H-[1,2,3]triazolo[4,5-c][1,7]naphthyridin-6-yl)amino)-6-((1S,2S)-2-fluorocyclopropane-1-carboxamido)-N-(methyl-d3)pyridazine-3-carboxamide]
[3]
  IC50: 0.03 to 0.3 µM
[4]
  IC50: 0.3 to 1 µM
